In patent US7034054B2, “Methods for the prevention and treatment of cerebral ischemia using non-alpha tocopherols” (Galileo Pharmaceuticals, Inc., priority 2000, dated 2006):

Key:
[1] = system: cerebral ischemia induced in rats (MCAO); assay: Animal cerebral infarct assay (Middle Cerebral Artery Occlusion, MCAO); assay type: in vivo, rat; conditions: for reduce infarct size: rat; for total infarct volume relative to control animals / total ischemic damage relative to control animals: administered I.V. at the time of MCAO; for cerebral edema relative to control animals: administered at the time of MCAO; for cerebral edema relative to controls / total infarct volume relative to controls / total ischemic damage relative to controls: administered at the time of reperfusion
Source text: This assay is used to assess the efficacy of the test agents in protecting the brain against necrosis following cerebral ischemia induced in rats. Middle Cerebral Artery Occlusion (MCAO) is a widely used technique to induce transient focal cerebral ischemia in animal models. […] Furthermore, this model accurately represents the involvement of middle cerebral artery (MCA), the most affected vessel in human stroke, and also allows reperfusion as it happens in humans. MCAO by a two-hour occlusion is used to produce the maximum size of cortical infarction without increased mortality at twenty-four hours.
Male Wistar rats (Hadan, Ind.) weighing 300-350 g were allowed free access to water and commercial rodent diet under standard laboratory conditions. The room temperature was maintained at 20-23° C. and room illumination was on a 12/12-hour light/dark cycle. The rats were acclimatized to the laboratory environment 5 to 7 days prior to the study.
Before surgery, the animals were fasted overnight, but had free access to water. The-rats were anesthetized with 3.0% isoflurane (Aerrane, Front Dodge, Iowa) in […] and the animal's neck was shaved and sterilized before the operation. The animals were subjected to two hours MCAO using a modified intraluminal filament technique. A midline incision on the ventral part of the neck was made to expose external and internal carotid arteries. The right external and common carotid arteries were ligated by a suture (silk 5/0, Carlisle Laboratories, Farmers Branch, Tex.) and the right internal artery was temporarily ligated by a microvascular clip (Fine Science Tool Inc., Foster City, Calif.). A small incision was made in the common carotid artery and a nylon filament, its tip rounded by heating, prepared from a fishing line (Stren Fishing Lines, Wilmington, Del.) was inserted from the right common carotid artery. The filament was advanced into the internal carotid artery 18-20 mm from the point of bifurcation of internal and external arteries and a suture was tightly ligated around the filament. Two hours post occlusion, the animals were re-anesthetized to allow reperfusion for the remaining of the experiment by removal of the filament.
Anesthesia was maintained by inhalation of 3.0% isoflurane in […] throughout the entire procedure. The exterior site of the right femoral vein was shaved and sterilized prior to surgery. A 3 cm incision was made in the right groin region and the femoral vein was isolated. A small incision was made on the femoral vein temporarily ligated with a microvascular clip to introduce and advance a polyethylene (PE-50) catheter (Becton. Dickinson and Co., Sparks, Md.). The catheter was secured in place with suture (silk 5/0, Cailisle Laboratories, Farmers Branch, Tex.). The other end of the catheter was attached to a syringe filled with the heparinized saline for the bolus injection. Using a hemostat a pocket was made subcutaneously on the back of the animal so the PE catheter can be brought up to the exteriorization point at the nape of the neck for either a bolus injection or a continuous injection by an osmotic pump.
A standard rat gavage tube (Popper & Sons Inc, NY) was attached to a 3-cc hypodermic syringe. The animal was held by the shoulder in a vertical position. The feeding tube was placed into the mouth then advanced until it reached the stomach (the approximate insertion length of the tube was measured prior to the feeding). The content of the syringe was slowly delivered, and then the tube is withdrawn.
The animals are sacrificed by CO2 asphyxiation (dry ice) 24 hours post-MCAO. The skull is removed to expose the brain using a small bone cutter and starting from the base of the skull. The brain is removed quickly, rinsed in a chilled saline and placed on a rat brain tissue slicer (ASI instrument, Mich.). Seven 2-mm thick coronal slices are cut from each brain using razor blades. […]

[2] = Evans resorption sterility test for vitamin E; cited from earlier work
[3] = 6 mg/kg, administered IV at MCAO
[4] = 0.60 mg/kg, administered IV at MCAO
[5] = administered at reperfusion (FIG. 2)
[6] = administered at the time of MCAO (FIG. 1)
[7] = at the same concentration, MCAO assay

Cc1c(C)c2c(c(C)c1O)CC[C@@](C)(CCC[C@H](C)CCC[C@H](C)CCCC(C)C)O2 (relative stereo) [alpha-tocopherol, [2R-2R*(4R*,8R*)]-3,4-dihydro-2,5,7,8-tetramethyl-2-(4,8,12-trimethyltridecyl)-2H-1-benzopyran-6-ol, reference compound]
reduce infarct size [1, 3]: 42%

Cc1cc(O)cc2c1O[C@](C)(CCC[C@H](C)CCC[C@H](C)CCCC(C)C)CC2 (relative stereo) [delta-tocopherol, [2R-[2R*(4R*,8R*)]]-3,4-dihydro-2,8-dimethyl-2-(4,8,12-trimethyltridecyl)-2H-1-benzo-pyran-6-ol]
reduce infarct size [1, 4]: 52% | reduction of total infarct volume compared with alpha-tocopherol ([1]; MCAO assay): more effective | activity relative to natural alpha-tocopherol [2]: one hundredth

Cc1c(O)cc2c(c1C)OC(C)(CCC(=O)O)CC2 (stereo not drawn) [gamma-CEHC, 2,7,8-trimethyl-2-(β-carboxy-ethyl)-6-hydroxy chroman]
total infarct volume relative to control animals [1]: significantly reduced | total ischemic damage relative to control animals [1]: significantly reduced | total infarct size [1, 5]: able to reduce total infarct size | cerebral edema relative to control animals [1]: reduced | total infarct size [1, 6]: able to reduce total infarct size | cerebral edema relative to controls [1]: reduction | total infarct volume relative to controls [1]: reduction | total ischemic damage relative to controls [1]: reduction | decreased neuronal damage ([1]; drug ranges 0.1-5 mg/kg, IV at MCAO): 50-65%

Cc1c(O)cc2c(c1C)OC(C)(CCCC(C)CCCC(C)CCCC(C)C)CC2 (centres unmarked) [gamma-tocopherol, 3,4-dihydro-2,7,8-trimethyl-2-(4,8,12-trimethyltridecyl)-2H-1-benzyopyran-6-ol]
reduce infarct size [1, 4]: 81% | reduce infarct size [1, 3]: 82% | reduce infarct size ([1]; 10.00 mg/kg by gavage, 3 hours pre-MCAO): 77% | total infarct volume relative to control animals [1]: significantly reduced | total ischemic damage relative to control animals [1]: significantly reduced | total infarct size [1, 5]: able to reduce total infarct size | cerebral edema relative to control animals [1]: significantly reduced | total infarct size [1, 6]: able to reduce total infarct size | cerebral edema relative to controls [1]: reduction | total infarct volume relative to controls [1]: reduction | total ischemic damage relative to controls [1]: reduction | reduction of tissue edema compared with alpha- or delta-tocopherol [1, 7]: more effective | reduction of total infarct volume compared with alpha- or delta-tocopherol [1, 7]: more effective
